# From paper PMC6397271 (Scientific Reports, 2019)
# “And” between values parts separate entries of the source, which are not always exact repeats. Equal entries are not always repeated. Where two headings read alike, the source gives them in different places.
# Tests used:
# [1] = tested on: S. aureus MRSA 12673; assay: microbe, parasite or virus in culture; assay type: cell-based, Staphylococcus aureus
# Outline: (§1)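 Resazurin-based metabolic staining gives the MIC in a broth microdilution format, run in triplicate. Test organisms include Van-susceptible reference MRSA N315, clinical h-VISA isolate 6347 and clinical enterococci, grown at 37 °C for 24 h in cation-adjusted MH or BHI broth.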
# [2] = tested on: S. aureus MRSA N315; assay: microbe, parasite or virus in culture; assay type: cell-based, Staphylococcus aureus
# Outline: as §1
# [3] = tested on: S. aureus MRSA hetero-VISA 6347; assay: microbe, parasite or virus in culture; assay type: cell-based, Staphylococcus aureus
# Outline: as §1
# [4] = tested on: S.aureus MRSA 12673; assay: microbe, parasite or virus in culture; assay type: cell-based, Staphylococcus aureus; settings: Staphylococcus aureus, MRSA
# Experimental: (§2) To find out MICA(with B) and MICB(with A) a checkerboard assay was carried out in 96-well microtiter plates (each test was performed in triplicates). […] Each well in a 96-well plate was inoculated with 100 µL of bacterial inoculum of 1 × 10^5 CFU/mL. For this purpose only bacterial strains of MRSA (N315, 12673 and 6347) were used. Next, the plates were incubated at 37 °C for 24 h.
# (§3) FIC index (FICI) is the sum of FICA and FICB. The interpretation of the calculated FICIs is in accordance to the following principle: FICI ≤ 0.5 synergy; FICI > 0.5 and ≤4 indifference (no interaction); FICI > 4, antagonism.
# [5] = tested on: S.aureus MRSA hetero-VISA 6347; assay: microbe, parasite or virus in culture; assay type: cell-based, Staphylococcus aureus; settings: Staphylococcus aureus
# Experimental: as §2, §3
# [6] = Brain concentration by LC/MS after iv administration; assay type: in vivo, BALB/c male mice; settings: iv tail vein, 60 mg/kg, 2 hours after administration, brain homogenate supernatant, UHPLC-ESI/MS SIM; Mean ± SD, ten mice; 60 mg/kg
# Experimental: In vivo experiments were performed on BALB/c male mice weighing between 20 and 30 g (the mouse model is widely used for estimation of drug BBB penetration). The animals (obtained from TAZD-CBU) were kept in a 12-hour day and night cycle at room temperature (20–22 °C), humidity 55–56% and fed with a standard diet and water ad libitum for at least 1 week before the experiment. Body temperature and weight were recorded on a regular daily schedule. It is confirmed that all procedures were carried out according to the guidelines outlined by the European Community Council Directive 2010/63/EEC, and they were approved by the local Ethical Committee Resolution 26/2014 (Bydgoszcz, Poland).
# The experiments in this section also involved the mouse model described above. […] Similarly to what was stated previously, the mice were sacrificed 2 hours after the administration of the compounds. Their brains were removed immediately from the cranium and weighed. Next, they were homogenized mechanically in the ice and frozen at −80 °C.
# Each homogenized mouse brain was centrifuged at 15 000 × g for 10 min. The supernatant was diluted with deionised water (Millipore), filtered (PTFE 0.22 μm filter) and analyzed by UHPLC-ESI/MS with the use of Shimadzu Nexera X2 UHPCL chromatograph and Shimadzu LCMS-2020 mass detector. […]
# [7] = tested on: bacterial strain not named; assay: Raw data of the MIC measurement (absorbance); assay type: cell-based; settings: concentration marked (MIC) in raw absorbance data
# Experimental: The strains were grown in Mueller-Hinton broth (MH cation-adjusted, Becton Dickinson) or Brain Heart Infusion broth (BHI, Becton Dickinson), respectively. The cultivation was carried out in an aerobic atmosphere at 37 °C for 24 hours and, afterwards, the bacterial cultures were diluted in geometric progression with a proper broth. Next, 100 µl of each dilution was inoculated in an agar plate and incubated at 37 °C for 24 h. The next procedures included determination of Colony Forming Units (CFU)/ml and minimal inhibitory concentration (MIC) of the compounds in question. The latter procedure was carried out according to the microbroth dilution technique using 96-well plates. The MICs were evaluated by using the metabolic assay based on the resazurin dye. The assay was performed in triplicates.
# [8] = Staphylococcus aureus, MRSA, 24 h, microbroth dilution, 96-well, resazurin, 37 °C, 24 h, mean ± SD, at least three independent experiments in triplicates, read-out: MIC
# [9] = Staphylococcus aureus, MRSA, raw MIC, first block, test a, repetition 1, read-out: MIC1a
# [10] = Staphylococcus aureus, MRSA, raw MIC, first block, test a, repetition 2, read-out: MIC2a
# [11] = Staphylococcus aureus, MRSA, raw MIC, first block, test a, repetition 3, read-out: MIC3a
# [12] = Staphylococcus aureus, MRSA, raw MIC, first block, test b, repetition 1, read-out: MIC1b
# [13] = Staphylococcus aureus, MRSA, raw MIC, first block, test b, repetition 2, read-out: MIC2b
# [14] = Staphylococcus aureus, MRSA, raw MIC, first block, test b, repetition 3, read-out: MIC3b
# [15] = Staphylococcus aureus, MRSA, raw MIC, test a, repetition 1, read-out: MIC1a
# [16] = Staphylococcus aureus, MRSA, raw MIC, test a, repetition 2, read-out: MIC2a
# [17] = Staphylococcus aureus, MRSA, raw MIC, test a, repetition 3, read-out: MIC3a
# [18] = Staphylococcus aureus, MRSA, raw MIC, test b, repetition 1, read-out: MIC1b
# [19] = Staphylococcus aureus, MRSA, raw MIC, test b, repetition 2, read-out: MIC2b
# [20] = Staphylococcus aureus, MRSA, raw MIC, test b, repetition 3, read-out: MIC3b
# [21] = microbroth dilution, 96-well, resazurin, 37 °C, 24 h, mean ± SD, at least three independent experiments in triplicates, listed as Van-HCl
# [22] = same test as μM value, mean ± SD
# [23] = 24 h, read-out: MIC Van(with TP10), MICA (with B)
compound,measurement,setting,value
"CN[C@H](CC(C)C)C(=O)N[C@H]1C(=O)N[C@@H](CC(N)=O)C(=O)N[C@H]2C(=O)N[C@H]3C(=O)N[C@H](C(=O)N[C@H](C(=O)O)c4cc(O)cc(O)c4-c4cc3ccc4O)[C@H](O)c3ccc(c(Cl)c3)Oc3cc2cc(c3O[C@@H]2O[C@H](CO)[C@@H](O)[C@H](O)[C@H]2O[C@H]2C[C@](C)(N)[C@H](O)[C@H](C)O2)Oc2ccc(cc2Cl)[C@H]1O [Van, vancomycin, reference compound]",MIC,[1]; [8],4.1 µM
same,MIC,[1]; [9],4.07 µM
same,MIC,[1]; [10],2.03 µM
same,MIC,[1]; [11],4.07 µM
same,MIC,[1]; [12],4.07 µM
same,MIC,[1]; [13],2.03 µM
same,MIC,[1]; [14],4.07 µM
same,MIC,[1]; [15],6.05 µM
same,MIC,[1]; [16],3.03 µM
same,MIC,[1]; [17],6.05 µM
same,MIC,[1]; [18],6.05 µM
same,MIC,[1]; [19],3.03 µM
same,MIC,[1]; [20],6.05 µM
same,MIC,[1]; [21],4.1 ± 1.1 µM
same,MIC in (μg/ml),[1]; [22],6.1 ± 1.6 µg/mL
same,MIC,[2]; [8],2 µM
same,MIC,[2]; [9],2 µM
same,MIC,[2]; [10],1 µM
same,MIC,[2]; [11],2 µM
same,MIC,[2]; [12],2 µM
same,MIC,[2]; [13],2 µM
same,MIC,[2]; [14],1 µM
same,MIC,[2]; [15],2.97 µM
same,MIC,[2]; [16],1.49 µM
same,MIC,[2]; [17],2.97 µM
same,MIC,[2]; [18],2.97 µM
same,MIC,[2]; [19],2.97 µM
same,MIC,[2]; [20],1.49 µM
same,MIC,[2]; [21],2.0 ± 0.5 µM
same,MIC,"[2]; microbroth dilution, 96-well, resazurin, 37 °C, 24 h, mean ± SD, at least three independent experiments in triplicates, read-out: MIC",2 µM
same,MIC in (μg/ml),[2]; [22],3.0 ± 0.7 µg/mL
same,MIC,"[3]; Staphylococcus aureus, 24 h, microbroth dilution, 96-well, resazurin, 37 °C, 24 h, mean ± SD, at least three independent experiments in triplicates, read-out: MIC",4.1 µM
same,MIC,"[3]; Staphylococcus aureus, raw MIC, first block, test a, repetition 1, read-out: MIC1a",4.07 µM
same,MIC,"[3]; Staphylococcus aureus, raw MIC, first block, test a, repetition 2, read-out: MIC2a",4.07 µM
same,MIC,"[3]; Staphylococcus aureus, raw MIC, first block, test a, repetition 3, read-out: MIC3a",4.07 µM
same,MIC,"[3]; Staphylococcus aureus, raw MIC, first block, test b, repetition 1, read-out: MIC1b",2.03 µM
same,MIC,"[3]; Staphylococcus aureus, raw MIC, first block, test b, repetition 2, read-out: MIC2b",4.07 µM
same,MIC,"[3]; Staphylococcus aureus, raw MIC, first block, test b, repetition 3, read-out: MIC3b",2.03 µM
same,MIC,"[3]; Staphylococcus aureus, raw MIC, test a, repetition 1, read-out: MIC1a",6.05 µM
same,MIC,"[3]; Staphylococcus aureus, raw MIC, test a, repetition 2, read-out: MIC2a",6.05 µM
same,MIC,"[3]; Staphylococcus aureus, raw MIC, test a, repetition 3, read-out: MIC3a",6.05 µM
same,MIC,"[3]; Staphylococcus aureus, raw MIC, test b, repetition 1, read-out: MIC1b",3.03 µM
same,MIC,"[3]; Staphylococcus aureus, raw MIC, test b, repetition 2, read-out: MIC2b",6.05 µM
same,MIC,"[3]; Staphylococcus aureus, raw MIC, test b, repetition 3, read-out: MIC3b",3.03 µM
same,MIC,[3]; [21],4.1 ± 1.1 µM
same,MIC in (μg/ml),[3]; [22],6.1 ± 1.6 µg/mL
same,MIC,[4]; [23],1.6 µM
same,MIC,"[4]; read-out: MIC Van (A), MICA",4.1 µM
same,MIC,[5]; [23],1.6 µM
same,MIC,"[5]; read-out: MIC Van (A), MICA",4.1 µM
same,Brain concentrations of Van,[6],11 nM and 11 ± 2 nM
same,MIC,[7],3.13 µM
